PubChem BioAssay (NCI)
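1) Cells in 96-well plates. 2) Compound, 48 h, 5 concentrations. 3) Linear interpolation between surrounding doses. 4) Unreached endpoint = highest concentration. GI50 = concentration required for 50% inhibition of growth. TGI: concentration producing complete growth inhibition.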

Legend:
Assay in all cases: inhibition of tumour cell growth, NCI panel, 48 h
786-0 renal = tested on: 786-0 renal
A498 renal = tested on: A498 renal
A549 NSCLC = tested on: A549 NSCLC
ACHN renal = tested on: ACHN renal
BT-549 breast = tested on: BT-549 breast
CAKI-1 renal = tested on: CAKI-1 renal
CCRF-CEM leukemia = tested on: CCRF-CEM leukemia
COLO 205 colon = tested on: COLO 205 colon
DU-145 prostate = tested on: DU-145 prostate
EKVX NSCLC = tested on: EKVX NSCLC
HCC-2998 colon = tested on: HCC-2998 colon
HCT-116 colon = tested on: HCT-116 colon
HCT-15 colon = tested on: HCT-15 colon
HL-60(TB) leukemia = tested on: HL-60(TB) leukemia
HOP-62 NSCLC = tested on: HOP-62 NSCLC
HOP-92 NSCLC = tested on: HOP-92 NSCLC
HS 578T breast = tested on: HS 578T breast
HT29 colon = tested on: HT29 colon
K-562 leukemia = tested on: K-562 leukemia
KM12 colon = tested on: KM12 colon
LOX IMVI melanoma = tested on: LOX IMVI melanoma
M14 melanoma = tested on: M14 melanoma
MALME-3M melanoma = tested on: MALME-3M melanoma
MCF7 breast = tested on: MCF7 breast
MDA-MB-231 breast = tested on: MDA-MB-231 breast
MDA-MB-435 = tested on: MDA-MB-435
MOLT-4 leukemia = tested on: MOLT-4 leukemia
NCI-H226 lung = tested on: NCI-H226 lung
NCI-H23 lung = tested on: NCI-H23 lung
NCI-H460 lung = tested on: NCI-H460 lung
NCI-H522 lung = tested on: NCI-H522 lung
NCI/ADR-RES ovarian = tested on: NCI/ADR-RES ovarian
OVCAR-3 ovarian = tested on: OVCAR-3 ovarian
OVCAR-4 ovarian = tested on: OVCAR-4 ovarian
OVCAR-5 ovarian = tested on: OVCAR-5 ovarian
OVCAR-8 ovarian = tested on: OVCAR-8 ovarian
PC-3 prostate = tested on: PC-3 prostate
RPMI-8226 leukemia = tested on: RPMI-8226 leukemia
RXF 393 renal = tested on: RXF 393 renal
SF-268 CNS = tested on: SF-268 CNS
SF-539 CNS = tested on: SF-539 CNS
SK-MEL-2 melanoma = tested on: SK-MEL-2 melanoma
SK-MEL-28 melanoma = tested on: SK-MEL-28 melanoma
SK-MEL-5 melanoma = tested on: SK-MEL-5 melanoma
SK-OV-3 ovarian = tested on: SK-OV-3 ovarian
SN12C renal = tested on: SN12C renal
SNB-19 CNS = tested on: SNB-19 CNS
SNB-75 CNS = tested on: SNB-75 CNS
SR leukemia = tested on: SR leukemia
SW-620 colon = tested on: SW-620 colon
T-47D breast = tested on: T-47D breast
TK-10 renal = tested on: TK-10 renal
U251 CNS = tested on: U251 CNS
UACC-257 melanoma = tested on: UACC-257 melanoma
UACC-62 melanoma = tested on: UACC-62 melanoma
UO-31 renal = tested on: UO-31 renal

Compound: O=c1ncc(I)cn1C1CC(O)C(CO)O1 (stereo unspecified)
- GI50 (786-0 renal): 3100 µM
- TGI (786-0 renal): > 3250 µM
- TGI (A498 renal): > 3250 µM
- GI50 (A549 NSCLC): 2460 µM
- TGI (A549 NSCLC): > 3250 µM
- GI50 (ACHN renal): 3120 µM
- TGI (ACHN renal): > 3250 µM
- GI50 (BT-549 breast): 1510 µM
- TGI (BT-549 breast): > 3250 µM
- GI50 (CAKI-1 renal): 1470 µM
- TGI (CAKI-1 renal): > 3250 µM
- GI50 (CCRF-CEM leukemia): 709 µM
- TGI (CCRF-CEM leukemia): > 3250 µM
- GI50 (COLO 205 colon): 1210 µM
- TGI (COLO 205 colon): > 3250 µM
- GI50 (DU-145 prostate): 1530 µM
- TGI (DU-145 prostate): > 3250 µM
- GI50 (EKVX NSCLC): > 3250 µM
- TGI (EKVX NSCLC): > 3250 µM
- GI50 (HCC-2998 colon): 2910 µM
- TGI (HCC-2998 colon): > 3250 µM
- GI50 (HCT-116 colon): 1310 µM
- TGI (HCT-116 colon): > 3250 µM
- GI50 (HCT-15 colon): 1680 µM
- TGI (HCT-15 colon): > 3250 µM
- GI50 (HL-60(TB) leukemia): 613 µM
- TGI (HL-60(TB) leukemia): > 3250 µM
- GI50 (HOP-62 NSCLC): 2940 µM
- TGI (HOP-62 NSCLC): > 3250 µM
- GI50 (HOP-92 NSCLC): > 3250 µM
- TGI (HOP-92 NSCLC): > 3250 µM
- GI50 (HS 578T breast): > 3250 µM
- TGI (HS 578T breast): > 3250 µM
- GI50 (HT29 colon): 1830 µM
- TGI (HT29 colon): > 3250 µM
- GI50 (K-562 leukemia): 1220 µM
- TGI (K-562 leukemia): > 3250 µM
- GI50 (KM12 colon): 1740 µM
- TGI (KM12 colon): > 3250 µM
- GI50 (LOX IMVI melanoma): 982 µM
- TGI (LOX IMVI melanoma): > 3250 µM
- GI50 (M14 melanoma): 1110 µM
- TGI (M14 melanoma): > 3250 µM
- GI50 (MALME-3M melanoma): > 3250 µM
- TGI (MALME-3M melanoma): > 3250 µM
- GI50 (MCF7 breast): 1430 µM
- TGI (MCF7 breast): > 3250 µM
- GI50 (MDA-MB-231 breast): > 3250 µM
- TGI (MDA-MB-231 breast): > 3250 µM
- GI50 (MDA-MB-435): 1020 µM
- TGI (MDA-MB-435): > 3250 µM
- GI50 (MOLT-4 leukemia): 1170 µM
- TGI (MOLT-4 leukemia): > 3250 µM
- GI50 (NCI-H226 lung): > 3250 µM
- TGI (NCI-H226 lung): > 3250 µM
- GI50 (NCI-H23 lung): 1620 µM
- TGI (NCI-H23 lung): > 3250 µM
- GI50 (NCI-H460 lung): 1540 µM
- TGI (NCI-H460 lung): > 3250 µM
- GI50 (NCI-H522 lung): 668 µM
- TGI (NCI-H522 lung): 1250 µM
- GI50 (NCI/ADR-RES ovarian): 1750 µM
- TGI (NCI/ADR-RES ovarian): > 3250 µM
- GI50 (OVCAR-3 ovarian): 1070 µM
- TGI (OVCAR-3 ovarian): > 3250 µM
- GI50 (OVCAR-4 ovarian): 1510 µM
- TGI (OVCAR-4 ovarian): > 3250 µM
- GI50 (OVCAR-5 ovarian): > 3250 µM
- TGI (OVCAR-5 ovarian): > 3250 µM
- GI50 (OVCAR-8 ovarian): 2610 µM
- TGI (OVCAR-8 ovarian): > 3250 µM
- GI50 (PC-3 prostate): > 3250 µM
- TGI (PC-3 prostate): > 3250 µM
- GI50 (RPMI-8226 leukemia): > 3250 µM
- TGI (RPMI-8226 leukemia): > 3250 µM
- GI50 (RXF 393 renal): > 3250 µM
- TGI (RXF 393 renal): > 3250 µM
- GI50 (SF-268 CNS): 2110 µM
- TGI (SF-268 CNS): > 3250 µM
- GI50 (SF-539 CNS): 2360 µM
- TGI (SF-539 CNS): > 3250 µM
- GI50 (SK-MEL-2 melanoma): > 3250 µM
- TGI (SK-MEL-2 melanoma): > 3250 µM
- GI50 (SK-MEL-28 melanoma): 3150 µM
- TGI (SK-MEL-28 melanoma): > 3250 µM
- GI50 (SK-MEL-5 melanoma): 2000 µM
- TGI (SK-MEL-5 melanoma): > 3250 µM
- GI50 (SK-OV-3 ovarian): 2100 µM
- TGI (SK-OV-3 ovarian): > 3250 µM
- GI50 (SN12C renal): 2710 µM
- TGI (SN12C renal): > 3250 µM
- GI50 (SNB-19 CNS): > 3250 µM
- TGI (SNB-19 CNS): > 3250 µM
- GI50 (SNB-75 CNS): > 3250 µM
- TGI (SNB-75 CNS): > 3250 µM
- GI50 (SR leukemia): 1170 µM
- TGI (SR leukemia): > 3250 µM
- GI50 (SW-620 colon): 1130 µM
- TGI (SW-620 colon): > 3250 µM
- GI50 (T-47D breast): 2220 µM
- TGI (T-47D breast): > 3250 µM
- GI50 (TK-10 renal): > 3250 µM
- TGI (TK-10 renal): > 3250 µM
- GI50 (U251 CNS): 1160 µM
- TGI (U251 CNS): > 3250 µM
- GI50 (UACC-257 melanoma): > 3250 µM
- TGI (UACC-257 melanoma): > 3250 µM
- GI50 (UACC-62 melanoma): 1480 µM
- TGI (UACC-62 melanoma): > 3250 µM
- GI50 (UO-31 renal): 711 µM
- TGI (UO-31 renal): 1760 µM
